Experimental data from ChEMBL document CHEMBL1130605, “Conformationally restricted carbamate inhibitors of horse serum butyrylcholinesterase” (Bioorg Med Chem Lett, 1998).

Columns and labels:
Butyrylcholinesterase [1] = molecular target: T1, Butyrylcholinesterase (Equus caballus, UniProt Q9N1N9); test: Tested for kinetic data for the horse serum Butyrylcholinesterase-Catalyzed Hydrolysis of Butyrylthiocholine; 10e-3/M. sec
Butyrylcholinesterase [2] = molecular target: T1, Butyrylcholinesterase; test: Compound was evaluated for irreversible inhibition of Horse serum Butyrylcholinesterase
[3] = molecular target: Butyrylcholinesterase (Equus caballus) (UniProt Q9N1N9)
Butyrylcholinesterase [4] = molecular target: T1, Butyrylcholinesterase; test: Compound was evaluated for its inhibitory concentration against Horse serum Butyrylcholinesterase

Structure (SMILES)	Ki (Butyrylcholinesterase [1])	Ki (Butyrylcholinesterase [2])	k2 [3]	IC50 (Butyrylcholinesterase [4])
CCCCNC(=O)OC12CC3CC(CC(C3)C1)C2	1.9 10e3* M-1 s-1	800 nM	1.5 10e-3 s-1	
CCCCNC(=O)OC1C[C@H]2CCC1C2 (stereo in doubt; 2) [listing 1 of 2 here]			0.92 10e-3 s-1	
CNC(=O)Oc1ccc2c(c1)[C@]1(C)CCN(C)[C@@H]1N2C [PHYSOSTIGMINE]				16 nM
CCCCNC(=O)OC1C[C@H]2CCC1C2 (stereo in doubt; 1) [listing 1 of 2 here]	110 10e3* M-1 s-1	20 nM		
CCCCNC(=O)OC1C2CC3CC(C2)CC1C3 (centres undefined)	1.8 10e3* M-1 s-1	800 nM	1.4 10e-3 s-1	
CCCCNC(=O)OC1C[C@H]2CCC1C2 (stereo in doubt; 2) [listing 2 of 2 here]	2.2 10e3* M-1 s-1	420 nM		
CC[N+](C)(C)c1cccc(O)c1 [EDROPHONIUM BROMIDE]		340000 nM		
CCCCNC(=O)OC1C[C@H]2CCC1C2 (stereo in doubt; 1) [listing 2 of 2 here]			2.2 10e-3 s-1	
